The values that follow come from patent publication US20160206610A1, “METHODS FOR TREATING AND/OR PREVENTING EMESIS AND/OR NAUSEA INCLUDING ACUTE AND/OR DELAYED NAUSEA AND/OR ACUTE EMESIS AND/OR DELAYED EMESIS” (priority 2015, published 2016).

This data set can be described thus: Fine particle fraction by Next Generation Impactor at 15 LPM (nebulizer solution). The format is physicochemical. The following applies: Example 6: nebulizer solution, 0.125% w/w palonosetron chloride in sodium chloride/citrate buffer. An excerpt:
For a nebulizer solution for inhalation, a 0.125% w/w solution of palonosetron chloride is formulated in a pharmaceutically acceptable buffer for inhalation (0.85% sodium chloride, 0.062% sodium citrate, 0.019% citric acid in water). If tested through a Next Generation Impactor at 15 LPM, the fine particle fraction of palonosetron <4.7 microns is anticipated to be >20%.

Where only a bound is given, the exact number is not on record here.

For `O=C1c2cccc3c2[C@H](CCC3)CN1[C@@H]1CN2CCC1CC2` [palonosetron], the “fine particle fraction <4.7 microns” value is on record as above 20%.
